Source: publication PMC4512239 (Clinical cancer research : an official journal of the …, 2015)
“Also recorded” adds a separate entry of the source.

Test: phase I safety and tolerability
Type: in vivo, human

CNC(=O)c1cccc(-c2ccc3c(N4CCOC[C@@H]4C)nc(N4CCOC[C@@H]4C)nc3n2)c1 [AZD2014]
Fatigue, Any grade (Part A 70mg BD solution (N=5)): 3 (60.0) Number (%) of patients | Fatigue, CTCAE grade 1-2 (Part A 70mg BD solution (N=5)): 2 (40.0) Number (%) of patients | Hypokalemia, Any grade (Part A 70mg BD solution (N=5)): 1 (20.0) Number (%) of patients | Hypokalemia, CTCAE grade 1-2 (Part A 70mg BD solution (N=5)): 1 (20.0) Number (%) of patients | Hypokalemia, CTCAE grade >=3 (Part A 70mg BD solution (N=5)): 0 Number (%) of patients | Lower respiratory tract infection, Any grade (Part A 70mg BD solution (N=5)): 1 (20.0) Number (%) of patients | Lower respiratory tract infection, CTCAE grade 1-2 (Part A 70mg BD solution (N=5)): 1 (20.0) Number (%) of patients | Lower respiratory tract infection, CTCAE grade >=3 (Part A 70mg BD solution (N=5)): 0 Number (%) of patients | Mucositis, Any grade (Part A 70mg BD solution (N=5)): 5 (100.0) Number (%) of patients | Mucositis, CTCAE grade 1-2 (Part A 70mg BD solution (N=5)): 3 (60.0) Number (%) of patients | Mucositis, CTCAE grade >=3 (Part A 70mg BD solution (N=5)): 2 (40.0) Number (%) of patients | Nausea, Any grade (Part A 70mg BD solution (N=5)): 3 (60.0) Number (%) of patients | Nausea, CTCAE grade 1-2 (Part A 70mg BD solution (N=5)): 3 (60.0) Number (%) of patients | Nausea, CTCAE grade >=3 (Part A 70mg BD solution (N=5)): 0 Number (%) of patients | Pruritus, Any grade (Part A 70mg BD solution (N=5)): 0 Number (%) of patients | Pruritus, CTCAE grade 1-2 (Part A 70mg BD solution (N=5)): 0 Number (%) of patients | Pruritus, CTCAE grade >=3 (Part A 70mg BD solution (N=5)): 0 Number (%) of patients | Rash, Any grade (Part A 70mg BD solution (N=5)): 1 (20.0) Number (%) of patients | Rash, CTCAE grade 1-2 (Part A 70mg BD solution (N=5)): 0 Number (%) of patients | Rash, CTCAE grade >=3 (Part A 70mg BD solution (N=5)): 1 (20.0) Number (%) of patients | Vomiting, Any grade (Part A 70mg BD solution (N=5)): 0 Number (%) of patients | Vomiting, CTCAE grade 1-2 (Part A 70mg BD solution (N=5)): 0 Number (%) of patients | Vomiting, CTCAE grade >=3 (Part A 70mg BD solution (N=5)): 0 Number (%) of patients | Anemia, Any grade (Part A 100mg BD solution (N=4)): 1 (25.0) Number (%) of patients | Anemia, CTCAE grade 1-2 (Part A 100mg BD solution (N=4)): 0 Number (%) of patients | Anemia, CTCAE grade >=3 (Part A 100mg BD solution (N=4)): 1 (25.0) Number (%) of patients | Back pain, Any grade (Part A 100mg BD solution (N=4)): 2 (50.0) Number (%) of patients | Back pain, CTCAE grade 1-2 (Part A 100mg BD solution (N=4)): 2 (50.0) Number (%) of patients | Back pain, CTCAE grade >=3 (Part A 100mg BD solution (N=4)): 0 Number (%) of patients | Constipation, Any grade (Part A 100mg BD solution (N=4)): 1 (25.0) Number (%) of patients | Constipation, CTCAE grade 1-2 (Part A 100mg BD solution (N=4)): 1 (25.0) Number (%) of patients | Constipation, CTCAE grade >=3 (Part A 100mg BD solution (N=4)): 0 Number (%) of patients | Cough, Any grade (Part A 100mg BD solution (N=4)): 0 Number (%) of patients | Cough, CTCAE grade 1-2 (Part A 100mg BD solution (N=4)): 0 Number (%) of patients | Cough, CTCAE grade >=3 (Part A 100mg BD solution (N=4)): 0 Number (%) of patients | Decreased appetite, Any grade (Part A 100mg BD solution (N=4)): 4 (100.0) Number (%) of patients | Decreased appetite, CTCAE grade 1-2 (Part A 100mg BD solution (N=4)): 4 (100.0) Number (%) of patients | Decreased appetite, CTCAE grade >=3 (Part A 100mg BD solution (N=4)): 0 Number (%) of patients | Diarrhea, Any grade (Part A 100mg BD solution (N=4)): 1 (25.0) Number (%) of patients | Diarrhea, CTCAE grade 1-2 (Part A 100mg BD solution (N=4)): 1 (25.0) Number (%) of patients | Diarrhea, CTCAE grade >=3 (Part A 100mg BD solution (N=4)): 0 Number (%) of patients | Dry mouth, Any grade (Part A 100mg BD solution (N=4)): 1 (25.0) Number (%) of patients | Dry mouth, CTCAE grade 1-2 (Part A 100mg BD solution (N=4)): 1 (25.0) Number (%) of patients | Dry mouth, CTCAE grade >=3 (Part A 100mg BD solution (N=4)): 0 Number (%) of patients | Dyspnea, Any grade (Part A 100mg BD solution (N=4)): 2 (50.0) Number (%) of patients | Dyspnea, CTCAE grade 1-2 (Part A 100mg BD solution (N=4)): 2 (50.0) Number (%) of patients | Dyspnea, CTCAE grade >=3 (Part A 100mg BD solution (N=4)): 0 Number (%) of patients | Fatigue, Any grade (Part A 100mg BD solution (N=4)): 4(100.0) Number (%) of patients | Fatigue, CTCAE grade 1-2 (Part A 100mg BD solution (N=4)): 2 (50.0) Number (%) of patients | Fatigue, CTCAE grade >=3 (Part A 100mg BD solution (N=4)): 2 (50.0) Number (%) of patients | Hypokalemia, Any grade (Part A 100mg BD solution (N=4)): 0 Number (%) of patients | Hypokalemia, CTCAE grade 1-2 (Part A 100mg BD solution (N=4)): 0 Number (%) of patients | Hypokalemia, CTCAE grade >=3 (Part A 100mg BD solution (N=4)): 0 Number (%) of patients | Lower respiratory tract infection, Any grade (Part A 100mg BD solution (N=4)): 0 Number (%) of patients | Lower respiratory tract infection, CTCAE grade 1-2 (Part A 100mg BD solution (N=4)): 0 Number (%) of patients | Lower respiratory tract infection, CTCAE grade >=3 (Part A 100mg BD solution (N=4)): 0 Number (%) of patients | Mucositis, Any grade (Part A 100mg BD solution (N=4)): 3 (75.0) Number (%) of patients | Mucositis, CTCAE grade 1-2 (Part A 100mg BD solution (N=4)): 3 (75.0) Number (%) of patients | Mucositis, CTCAE grade >=3 (Part A 100mg BD solution (N=4)): 0 Number (%) of patients | Nausea, Any grade (Part A 100mg BD solution (N=4)): 4 (100.0) Number (%) of patients | Nausea, CTCAE grade 1-2 (Part A 100mg BD solution (N=4)): 4 (100.0) Number (%) of patients | Nausea, CTCAE grade >=3 (Part A 100mg BD solution (N=4)): 0 Number (%) of patients | Pruritus, Any grade (Part A 100mg BD solution (N=4)): 0 Number (%) of patients | Pruritus, CTCAE grade 1-2 (Part A 100mg BD solution (N=4)): 0 Number (%) of patients | Pruritus, CTCAE grade >=3 (Part A 100mg BD solution (N=4)): 0 Number (%) of patients | Rash, Any grade (Part A 100mg BD solution (N=4)): 0 Number (%) of patients | Rash, CTCAE grade 1-2 (Part A 100mg BD solution (N=4)): 0 Number (%) of patients | Rash, CTCAE grade >=3 (Part A 100mg BD solution (N=4)): 0 Number (%) of patients | Vomiting, Any grade (Part A 100mg BD solution (N=4)): 4 (100.0) Number (%) of patients | Vomiting, CTCAE grade 1-2 (Part A 100mg BD solution (N=4)): 4 (100.0) Number (%) of patients | Vomiting, CTCAE grade >=3 (Part A 100mg BD solution (N=4)): 0 Number (%) of patients | grade 3 or 4 hyperglycemia (RP2D of 50 mg BD): no grade 3 or 4 hyperglycemia was seen | fatigue, most common AEs (at the MTD (50 mg BD)): 78% | fatigue, nausea and mucositis equal to or greater than grade 3, patients (at the MTD (50 mg BD)): 5% | nature of the dose limiting toxicities (dose range 25-100 mg): fatigue and mucositis | recommended phase II dose (RP2D) (oral, continuous twice daily dosing): 50 mg BD | maximally tolerated dose (MTD) (oral, continuous twice daily dosing, solution): 50 mg BD | pneumonitis (phase I study): no patients were diagnosed with pneumonitis; also recorded: no instances of pneumonitis | Anemia, Any grade (total (N=56)): 9 (16.1) Number (%) of patients | Anemia, CTCAE grade 1-2 (total (N=56)): 7 (12.5) Number (%) of patients | Anemia, CTCAE grade >=3 (total (N=56)): 2 (3.6) Number (%) of patients | Back pain, Any grade (total (N=56)): 9 (16.1) Number (%) of patients | Back pain, CTCAE grade 1-2 (total (N=56)): 8 (14.3) Number (%) of patients | Back pain, CTCAE grade >=3 (total (N=56)): 1 (1.8) Number (%) of patients | Constipation, Any grade (total (N=56)): 16 (28.6) Number (%) of patients | Constipation, CTCAE grade 1-2 (total (N=56)): 16 (28.6) Number (%) of patients | Constipation, CTCAE grade >=3 (total (N=56)): 0 Number (%) of patients | Cough, Any grade (total (N=56)): 12 (21.4) Number (%) of patients | Cough, CTCAE grade 1-2 (total (N=56)): 12 (21.4) Number (%) of patients | Cough, CTCAE grade >=3 (total (N=56)): 0 Number (%) of patients | Decreased appetite, Any grade (total (N=56)): 26 (46.4) Number (%) of patients | Decreased appetite, CTCAE grade 1-2 (total (N=56)): 26 (46.4) Number (%) of patients | Decreased appetite, CTCAE grade >=3 (total (N=56)): 0 Number (%) of patients | Diarrhea, Any grade (total (N=56)): 23 (41.1) Number (%) of patients | Diarrhea, CTCAE grade 1-2 (total (N=56)): 23 (41.1) Number (%) of patients | Diarrhea, CTCAE grade >=3 (total (N=56)): 0 Number (%) of patients | Dry mouth, Any grade (total (N=56)): 10 (17.9) Number (%) of patients | Dry mouth, CTCAE grade 1-2 (total (N=56)): 10 (17.9) Number (%) of patients | Dry mouth, CTCAE grade >=3 (total (N=56)): 0 Number (%) of patients | Dyspnea, Any grade (total (N=56)): 11 (19.6) Number (%) of patients | Dyspnea, CTCAE grade 1-2 (total (N=56)): 9 (16.1) Number (%) of patients | Dyspnea, CTCAE grade >=3 (total (N=56)): 2 (3.6) Number (%) of patients | Fatigue, Any grade (total (N=56)): 42 (75.0) Number (%) of patients | Fatigue, CTCAE grade 1-2 (total (N=56)): 36 (64.3) Number (%) of patients | Fatigue, CTCAE grade >=3 (total (N=56)): 6 (10.7) Number (%) of patients | Hypokalemia, Any grade (total (N=56)): 9 (16.1) Number (%) of patients | Hypokalemia, CTCAE grade 1-2 (total (N=56)): 8 (14.3) Number (%) of patients | Hypokalemia, CTCAE grade >=3 (total (N=56)): 1 (1.8) Number (%) of patients | Lower respiratory tract infection, Any grade (total (N=56)): 9 (16.1) Number (%) of patients | Lower respiratory tract infection, CTCAE grade 1-2 (total (N=56)): 7 (12.5) Number (%) of patients | Lower respiratory tract infection, CTCAE grade >=3 (total (N=56)): 2 (3.6) Number (%) of patients | Mucositis, Any grade (total (N=56)): 30 (53.6) Number (%) of patients | Mucositis, CTCAE grade 1-2 (total (N=56)): 27 (48.2) Number (%) of patients | Mucositis, CTCAE grade >=3 (total (N=56)): 3 (5.4) Number (%) of patients | Nausea, Any grade (total (N=56)): 30 (53.6) Number (%) of patients | Nausea, CTCAE grade 1-2 (total (N=56)): 28 (50.0) Number (%) of patients | Nausea, CTCAE grade >=3 (total (N=56)): 2 (3.6) Number (%) of patients | Pruritus, Any grade (total (N=56)): 13 (23.2) Number (%) of patients | Pruritus, CTCAE grade 1-2 (total (N=56)): 13 (23.2) Number (%) of patients | Pruritus, CTCAE grade >=3 (total (N=56)): 0 Number (%) of patients | Rash, CTCAE grade 1-2 (total (N=56)): 16 (28.6) Number (%) of patients | Rash, CTCAE grade >=3 (total (N=56)): 3 (5.4) Number (%) of patients | Vomiting, Any grade (total (N=56)): 16 (28.6) Number (%) of patients | Vomiting, CTCAE grade 1-2 (total (N=56)): 15 (26.8) Number (%) of patients | Vomiting, CTCAE grade >=3 (total (N=56)): 1 (1.8) Number (%) of patients
